According to patent US12465607B2, “ALK inhibitors for treatment of ALK-negative cancer and plasma cell-mediated diseases” (UNIVERSITETET I OSLO, priority 2019, dated 2025):
pIC50: −log10 of the molar value. Like-named read-outs stand apart in the source and are kept apart here.

Assays:
AMO-1-BTZ = experiment: Myeloma cell line viability, CCK-8, 24 hr; type: cell-based; conditions: Homo sapiens, 24 hr treatment
Protocol: (§1) The Results are the means of 3 independent experiments. Note the concentration-dependent reduction of viability of myeloma cells.
(§2) The cell lines used were the human multiple myeloma cell lines L363 (DSMZ catalogue number ACC 49), AMO-1 (DSMZ catalogue number ACC 538) and ARH-77 (ATCC CRL-1621).
(§3) Multiple myeloma cell lines were maintained in RPMI-1640 culture medium (Sigma-Aldrich, Buchs, Switzerland) supplemented with 10% heat-inactivated fetal bovine serum (FBS), 100 μg/ml streptomycin and 100 U/ml penicillin/streptomycin (Sigma-Aldrich, Buchs, Switzerland). The bortezomib-resistant cell lines were established and maintained from their parental cell line by continuous drug exposure>12 months to their parental cell lines (Soriano et al, Leukemia 30: 2198-2207, 2016).
(§4) The viability of the cells was determined 24 hr post treatment using Cell Counting Kit-8 (CCK-8; MedChemExpress, NJ, USA) according to the manufacturer's instructions.

AMO-1 = experiment: Myeloma cell line viability, CCK-8, 24 hr; type: cell-based; conditions: Homo sapiens, AMO1; AMO-1, 24 hr treatment
Protocol: as §1, §2, §3, §4

HeLa cells = experiment: ER-to-Golgi trafficking in HeLa cells (ERES staining, mannosidase-II RUSH reporter); type: cell-based; conditions: RUSH reporter 20 min after biotin
Protocol: In A, HeLa cells expressing flag-tagged LTK were treated with 1 μM of crizotinib or ceritinib for 30 minutes. Afterwards, cells were lysed and immunoblotted against phosphorylated LTK, which is used as a surrogate for the active form of LTK. […] B, HeLa cells were treated with 1 μM ceritinib for 30 minutes followed by fixation and staining for Sec31A to label ERES. Cells were imaged by confocal microscopy and ERES were counted using ImageJ. C, HeLa cells stably expressing mCherry-tagged mannosidase-II RUSH reporter. Cells were treated with biotin to release the reporter from the ER. After 20 min, a time point where most of the reporter has reached the Golgi, cells were fixed and immunostained for GM130 to label the Golgi apparatus. […] D, IgA secreting AMO-1 cells were treated for 3 h with the indicated doses of crizotinib and the amount of IgA in cell supernatant was determined by ELISA.

[1] = tested on: CD138+ multiple myeloma cells; experiment: Viability of patient CD138+ multiple myeloma cells, CellTiterGlo 72 hr; type: cell-based; conditions: Homo sapiens, Multiple myeloma cell, patient-derived CD138+ multiple myeloma cells
Protocol: Viability was measured by CellTiterGlo.
Seven multiple myeloma patient samples were included. Patients were due for treatment after second relapse (patient number 1701), third relapse (2101, 2021, 1802, 9041, 2504) or fourth relapse (2201).
Bone marrow mononuclear cells (BMMCs) were prepared from patient bone marrow aspirates by Lymphoprep density gradient centrifugation. After CD8 depletion by Dynabeads (Life Technologies) BMMCs were subsequently stimulated by expanding Th cells in the presence of Human T-Activator CD3/CD28 Dynabeads (Life Technologies) and 100 U/ml human interleukin-2 (hIL-2, Roche, Mannheim, Germany). After 48 h, BMMCs were subjected to CD138+ enrichment to isolate multiple myeloma plasma cells using MACS CD138+ microbeads (Milteny Biotec, Bergisch Gladbach, Germany).
6 crizotinib concentrations were tested, in 10-fold dilutions covering a 0.1-10,000 nM concentration range (plates dispensed by an Echo acoustic dispenser, LabCyte Inc., San Jose, CA, USA).
The plate was incubated in a humidified environment at 37° C. and 5% CO2. Cell viability was determined after 72 hr using the CellTiterGlo (Promega, Madison, WI, USA) ATP assay according to the manufacturer's instructions and using an Envision Xcite plate reader (Perkin Elmer, Shelton, CT, USA). […]

[2] = tested on: human L363-BTZ (bortezomib-resistant) myeloma cells; experiment: Intrafemoral L363-BTZ luciferase xenograft in NSG mice; type: in vivo; conditions: 7 days treatment from day 10; crizotinib 50 mg/kg orally daily; bortezomib 1 mg/kg i.v. twice
Protocol: In this figure, immunocompromised NSG mice were intrafemorally injected with human L363-BTZ (bortezomib-resistant) myeloma cells. The cells were equipped with luciferase for in vivo monitoring of disease progression. After 10 days, mice were treated with bortezomib i.v. twice over a 7 day period and with crizotinib orally every day over the 7 day period. The images on the left show examples of tumour load in the different groups at days 4 and 7 of treatment (days 14 and 17 post tumour inoculation), and the graph on the right depicts the average luciferase signal for each mouse in each cohort (n=4) normalised to day 0 of the treatment (day 10 post tumour inoculation). Statistical significance between the groups was assessed with two-way ANOVA and between the time-points using one-way ANOVA with Tukey post-test.
NSG (NOD-scid IL2Rgamma^null) mice were obtained from The Jackson Laboratory (No. 005557, CA, USA) and kept in isolated ventilated cages with food ad libitum. Age matched (6-8 weeks old) mice were injected with 0.5×10^5 L363-BTZ_Luc+_TdTomato+ multiple myeloma cells (equipped with luciferase vector for monitoring, obtained from Addgene: #72486) into the right femur. Tumour growth was monitored twice over the week following luciferin injection (150 mg/kg, obtained from BioVision, CA, USA). […]

CLL cells = experiment: Viability of activated CLL cells from patients, CellTiter-Glo 72 h (IC50, DSS); type: cell-based, human; conditions: for pIC50: Homo sapiens, CLL cell
Protocol: CLL cells from patients were stimulated by adherent murine L cells expressing CD40L, BAFF and April for 24 h. The L cells were then removed by immuno-magnetic separation. Washed CLL cells were plated into 384-well plate format (10,000 cells/well) and tested against crizotinib at 5 concentrations in 10-fold dilutions (plates dispensed by an Echo acoustic dispenser, LabCyte Inc., San Jose, CA, USA). The plate was incubated in a humidified environment at 37° C. and 5% CO2. Cell viability was determined after 72 h using the CellTiter-Glo (Promega, Madison, WI, USA) ATP assay according to the manufacturer's instructions and using an Envision 2102 Multilabel reader (PerkinElmer, Shelton, CT, USA). Relative percentage cell viability was calculated by normalising luminescence units for each well to negative (DMSO 0.1%) and positive (100 μM BzCl) control wells. Curve fitting was conducted to obtain IC50 values.
Quantitative scoring of differential drug sensitivity for individual drugs was calculated as drug sensitivity scores (DSS values, Yadav et al., Scientific Reports 4: 5193, 2014). DSS values were calculated for integrated multiple dose-response relationships in high-throughput compound testing as shown.

plasma cells = experiment: Viability of in vitro-generated IRF4/BLIMP1 double positive end stage plasma cells; type: cell-based; conditions: Homo sapiens, B-cell, 120 h; B-cells stimulated 5 days, inhibitor day 5-7
Text: Negatively selected normal B-cells from blood bank donors were stimulated with sCD40L, IL-21, IL-4 for 5 days. This protocol allows generation of 10-20% end differentiated plasma cells that express IRF4 and BLIMP1. From day 5-7, cells were exposed to titred crizotinib in A, or ceritinib in B.
In A and B, IRF4 vs BLIMP1 in gated CD19^+ B cells is shown. IRF4 and BLIMP1 double positive cells represent end stage plasma cells. Such plasma cells are gated (blue elliptic region) and percent plasma cells are shown. The conditions without inhibitor (0) and with linear Alk-inhibitor (crizotinib, A; ceritinib, B) are shown for concentrations 0.01 μM, 0.1 μM, 1 μM, 10 μM and 100 μM.

L363wt plasma cell lines = experiment: Intrafemoral Luciferase+ L363wt plasma cell line xenograft in NSG mice, IVIS imaging; type: in vivo; conditions: 50 mg/kg, orally, daily, 7 days
Protocol: Luciferase^+ L363wt plasma cell lines were injected intrafemorally into immunocompromised NSG mice. After 10 days, mice were treated with crizotinib (50 mg/kg, orally, daily) every day for 7 days.
Mice were imaged on an IVIS optical imager on days 10, 14 and 17. Ventral aspects of 3 (of 4) mice are shown. Mice received vehicle (top) or crizotinib (bottom).

[3] = CLL cells from 21 patients, 72 h

pIC50 (AMO-1-BTZ): 5.19 | pIC50 (AMO-1): 5.41 | pIC50 [1]: 5.30 to 6.10
Structure (SMILES): C[C@@H](Oc1cc(-c2cnn(C3CCNCC3)c2)cnc1N)c1c(Cl)ccc(F)c1Cl [crizotinib, 3-[(1R)-1-(2,6-dichloro-3-fluorophenyl)ethoxy]-5-(1-piperidin-4-ylpyrazol-4-yl)pyridin-2-amine]
ER-to-Golgi trafficking (HeLa cells): less of the reporter in the Golgi region | tumour burden (luciferase signal) [2]: reduction in tumour burden | share of patients with CLL cells highly sensitive by drug sensitivity score (DSS) (CLL cells; 21 patients): a third | patients with susceptible CLL cells, cut-off DSS=10 (CLL cells; CLL cells from 12 new patients): 10/12 | patient samples with CLL cells sensitive (CLL cells; [3]): 17 of 21 | patient samples with CLL cells sensitive, percent (CLL cells; [3]): 81% | pIC50 (CLL cells; 3 patient samples, read-out: IC50, highly sensitive CLL samples): > 6.70 | pIC50 (CLL cells; 3 patient samples, read-out: IC50, supersensitive CLL samples): > 8.00 | pIC50 (CLL cells; 11 patient samples, read-out: IC50, normally sensitive CLL samples): > 5.70 | patient samples highly sensitive (CLL cells; IgVH mutated CLL): Three out of 15 | patient samples with low sensitivity (CLL cells; IgVH mutated CLL): Four of the 15 | patient samples highly sensitive (CLL cells; IgVH unmutated CLL): Four of six | patient samples with low sensitivity (CLL cells; IgVH unmutated CLL): None | pIC50 (plasma cells): 6.10 | mice with dramatically reduced signals from plasma cells (L363wt plasma cell lines): 3 of 4 | plasma cell density (luciferase dependent signals) (L363wt plasma cell lines): reduced plasma cell density
